Key:
Experiment in all cases: relative viability (nuclei count vs DMSO), 5 days (fraction); higher = more cells survive
[1] = compound: COc1cc2c(Oc3ccc4[nH]c(C)cc4c3F)ncnc2cc1OCCCN1CCCC1 [Cediranib] + COc1cc2c(Oc3ccc(NC(=O)C4(C(=O)Nc5ccc(F)cc5)CC4)cc3F)ccnc2cc1OCCCN1CCOCC1 [Foretinib] (partner 0.25 µM)
How it was run: (§1)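 Medians of duplicate plates are given as relative viability. That measure is the nuclei count in treated wells divided by the count in vehicle wells. Counts were taken on 4× images of lung cancer cell lines in 1536-well plates, 5 days after pin-tool dosing the day after seeding with one drug alone or a fixed anchor-drug dose plus five library-drug doses (not always all listed) in √10 steps.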

[2] = compound: COc1cc2c(Oc3ccc4[nH]c(C)cc4c3F)ncnc2cc1OCCCN1CCCC1 [Cediranib] + CS(=O)(=O)N1CCN(Cc2cc3nc(-c4cccc5[nH]ncc45)nc(N4CCOCC4)c3s2)CC1 [Pictilisib] (partner 1 µM)
How it was run: as §1

[3] = compound: Nc1ncn([C@H]2C[C@H](O)[C@@H](CO)O2)c(=O)n1 [Decitabine] + CCNC(=O)c1noc(-c2cc(C(C)C)c(O)cc2O)c1-c1ccc(CN2CCOCC2)cc1 [Luminespib] (partner 0.01 µM)
How it was run: as §1

[4] = compound: O=C(C[C@H]1NCCC[C@@H]1O)Cn1cnc2cc(Br)c(Cl)cc2c1=O (racemic) [Halofuginone] + CS(=O)(=O)N1CCN(Cc2cc3nc(-c4cccc5[nH]ncc45)nc(N4CCOCC4)c3s2)CC1 [Pictilisib] (partner 1 µM)
How it was run: as §1

Cell Line | relative viability ([1]; first compound 0.04 µM) | relative viability ([1]; first compound 0.1265 µM) | relative viability ([1]; first compound 0.4 µM) | relative viability ([1]; first compound 1.265 µM) | relative viability ([1]; first compound 4 µM) | relative viability ([2]; first compound 0.04 µM) | relative viability ([2]; first compound 0.1265 µM) | relative viability ([2]; first compound 0.4 µM) | relative viability ([2]; first compound 1.265 µM) | relative viability ([2]; first compound 4 µM) | relative viability ([3]; first compound 0.04 µM) | relative viability ([3]; first compound 0.1265 µM) | relative viability ([3]; first compound 0.4 µM) | relative viability ([3]; first compound 1.265 µM) | relative viability ([3]; first compound 4 µM) | relative viability ([4]; first compound 0.001 µM) | relative viability ([4]; first compound 0.003162 µM) | relative viability ([4]; first compound 0.01 µM) | relative viability ([4]; first compound 0.03162 µM) | relative viability ([4]; first compound 0.1 µM)
SK-MES-1 | 0.834 | 1.02 | 0.927 | 0.901 | 0.976 | 0.349 | 0.441 | 0.284 | 0.391 | 0.383 | 0.566 | 0.575 | 0.331 | 0.288 | 0.232 | 0.366 | 0.358 | 0.362 | 0.211 | 0.145
NCI-H2126 | 1.26 | 1.2 | 1.04 | 1.16 | 1.05 | 0.442 | 0.432 | 0.458 | 0.452 | 0.435 | 0.811 | 0.723 | 0.547 | 0.492 | 0.485 | 0.562 | 0.486 | 0.533 | 0.485 | 0.427
EPLC-272H | 0.634 |  | 0.634 |  | 0.693 | 0.322 |  | 0.346 | 0.305 | 0.248 |  | 0.561 | 0.249 | 0.227 | 0.321 | 0.324 | 0.306 | 0.338 | 0.352 | 0.325
NCI-H1975 | 0.952 | 1.03 | 0.944 | 1.05 | 1.04 | 0.316 | 0.466 | 0.275 | 0.239 | 0.29 | 0.198 | 0.161 | 0.162 | 0.174 | 0.142 | 0.319 | 0.298 | 0.31 | 0.225 | 0.106
NCI-H3122 | 0.938 | 1.03 | 0.991 | 0.844 | 1.02 | 0.669 | 0.674 | 0.585 | 0.55 | 0.588 | 0.0814 | 0.0807 | 0.0785 | 0.0889 | 0.0802 | 0.58 | 0.581 | 0.538 | 0.67 | 0.494
COR-L 105 | 1.04 | 1.38 | 0.931 | 0.904 | 1.22 |  | 0.434 | 0.332 | 0.376 | 0.403 | 0.561 | 0.517 | 0.714 | 0.469 | 0.571 | 0.437 | 0.432 | 0.412 | 0.338 | 0.31
BEN | 0.745 |  | 0.707 | 0.344 | 0.682 | 0.584 | 0.497 | 0.509 | 0.425 | 0.504 | 0.332 | 0.373 | 0.243 | 0.282 | 0.242 | 0.52 | 0.587 | 0.547 | 0.594 | 0.425
NCI-H1915 | 1.14 | 1.01 | 1.08 | 1.11 | 1.13 | 0.874 | 0.722 | 0.87 | 0.837 | 1.04 | 0.331 | 0.465 | 0.267 | 0.186 | 0.219 | 0.917 | 1.04 | 0.915 | 0.861 | 0.882
NCI-H650 | 1.03 | 0.944 | 1 | 1.09 | 1.02 | 0.848 | 0.956 | 0.836 | 0.915 | 1.04 | 0.627 | 0.652 | 0.489 | 0.314 | 0.315 | 0.956 | 0.953 | 1.02 | 0.801 | 0.566
NCI-H1650 | 1.07 | 1.36 | 1.14 | 1.08 | 0.873 | 0.61 | 0.234 | 0.494 | 0.468 | 0.383 | 0.188 | 0.182 | 0.194 | 0.201 | 0.179 | 0.28 | 0.658 | 0.469 | 0.495 | 0.136
NCI-H2009 | 1.24 | 1.15 | 1.24 | 1.25 | 1.17 | 0.769 | 0.325 | 0.644 | 0.639 | 0.822 | 0.929 | 0.68 | 0.54 | 0.328 | 0.348 | 1.07 | 0.878 | 0.758 | 0.689 | 0.26
COR-L23 | 0.943 | 0.938 | 0.916 | 1.05 | 1.09 | 0.75 | 0.821 | 0.775 | 0.501 | 0.783 | 0.331 | 0.402 | 0.298 | 0.222 | 0.148 | 0.954 | 0.963 | 0.801 | 0.6 | 0.156
NCI-H460 | 1.01 | 1.02 | 1.02 | 0.944 | 1.04 | 0.466 | 0.7 | 0.355 | 0.33 | 0.397 | 0.0345 | 0.0356 | 0.0279 | 0.034 | 0.0328 | 0.393 | 0.345 | 0.336 | 0.345 | 0.299
LCLC-103H | 0.819 | 0.964 | 0.686 | 0.823 | 0.832 | 0.63 | 0.754 | 0.619 | 0.654 | 0.56 | 0.863 | 0.829 | 0.685 | 0.594 | 0.472 | 0.627 | 0.605 | 0.601 | 0.668 | 0.685
HCC-827 | 1.2 |  | 0.986 | 1.05 | 1.03 | 1.1 |  | 0.955 | 0.944 | 0.97 | 0.239 | 0.31 | 0.246 | 0.301 | 0.316 | 0.874 | 1.05 | 0.962 | 1.08 | 0.777

Reference: the supplement of paper PMC10307832
